Results: patent US20170049884A1, “USE OF ANTI-CCR5 ANTIBODIES IN GRAFT VERSUS HOST DISEASE” (CytoDyn Inc., priority 2014, published 2017)
Like-named read-outs stand apart in the source and are kept apart here.

What was measured:
[1] = system: HIV-1 Env-mediated fusion of HeLa-EnvJRFL and CEM NKR-CCR5 cells; assay: HIV-1 RET cell-cell fusion assay (Part II, Example 1); type: cell-based; conditions: PRO 140 in combination with the named compound; for Mean CF: 1:1 molar ratio, Combination Index at IC50 value
Experimental: and then diluted in DMSO to 200× the final, concentration to be utilized in the antiviral assay. Serial dilutions of small molecules were conducted in DMSO. Subsequent dilutions were conducted in medium to achieve a final DMSO concentration in the assay of 0.5%. Peptides and mAbs were diluted in PBS in the absence of DMSO.
HeLa cells were engineered to express HIV-1 gp120/gp41 from the macrophage-tropic primary isolate JRFL as described (HeLa-EnvJRFL: Litwin et al., 1996). Briefly, the HIV-1LA1 Env gene was excised from the plasmid pMA243 (Dragic et al., 1992) and the HIV-1JRFL Env gene was inserted. The HIV-1.sub JRFL Env gene was amplified from the plasmid pUCFL112-1 (Koyanagi et al., 1987). The resulting plasmid, designated JR-FL-pMA243, was sequenced by standard methods and transfected into HeLa cells using lipofectin (Gibco BRL/Invitrogen, Carlsbad, Calif.). HeLa-Env.sub JRFL transfectants were selected in methotrexate (Sigma, St. Louis, Mo.) and cloned twice by limiting dilution. The transduced human T cell leukemia line CEM NKR-CCR5 cells were obtained from the NIH AIDS Research and Reference Program (Cat. No. 458).
The HIV-1 RET assay has been described in detail previously (Litwin et al., 1996). Briefly, fluorescein octadecyl ester (F18; Molecular Probes, Eugene, Oreg.; 5 mg/ml in ethanol), was diluted 1:800 in DMEM labeling medium (DMEM; Invitrogen, Carlsbad, Calif.) with 10% fetal bovine serum (FBS; HyClone, Logan, Utah) and adjusted to an A506 of 0.34.+−0.10%. Octadecyl rhodamine B chloride (R18; Molecular Probes; 10 mg/ml in ethanol) was diluted 1:2050 in labeling medium and adjusted to an A565 of 0.52.+−0.10%. Both dyes were further diluted 2-fold by addition to cells in T75-cm^2 flasks. HeLa-EnvJRFL and CEM NKR-CCR5 cells were incubated overnight in F18- and R18-containing culture medium, respectively. The following day, medium from HeLa-EnvJRFL, cells was removed and 10 ml of 0.5 mM EDTA was added and incubated at 37°C. for 5 min. […] The centrifugation/wash step was repeated twice, after which the cells were counted and concentrations adjusted to 1.5×10^6 cells/ml. […] The plates were then read on a fluorescence plate reader (Victor^2, Perkin Elmer, Boston, Mass.) using the excitation/emission filter combinations shown in Table 5.
The “% Inhibition” was calculated according to the following formula: […]
Fifty percent inhibition (IC50) values were determined by fitting the inhibition data with a non-linear, four-parameter, variable slope equation (GraphPad Prism 4.02; GraphPad Software, San Diego, Calif.). […]
Cooperative inhibition effects of drug combinations were determined by the method of Chou and Talalay (1984). […] Combination Index (CI) and Dose Reduction (DR) values were calculated according to the following formulas: […]

[2] = system: HIV-1JR-FL envelope-mediated membrane fusion; type: cell-based
From the text: HIV-1 envelope-mediated membrane fusion was examined using a fluorescence resonance energy transfer (RET) assay (Litwin et al. 1996) with modifications. Briefly, HeLa cells that stably express HIV-1JR-FL gp120/gp41 (Litwin et al. 1996) and CEM.NKR-CCR5 cells (NTH AIDS Research and Reference Reagent Program, (Spenlehauer et al. 2001; Trkola et al. 1999)) were labeled separately overnight with fluorescein octadecyl ester (F18; Molecular Probes, Eugene, Oreg.) and rhodamine octadecyl ester (R18; Molecular Probes), respectively. Cells were washed in phosphate-buffered saline containing 15% feral bovine serum (PBSF) and co-seeded at 15,000 cells/well into a 384-well plate. Inhibitors were added, and the plates were incubated in PBSF plus 0.5% dimethlysulfoxide (DMSO) for 4h at 37°C. prior to measurement of RET using a Victor^2 plate reader (Perkin-Elmer, Boston, Mass.) as previously described (Litwin et al. 1996). The CD4 mAb Leu3a was used as a control inhibitor, and percent inhibition was calculated as: (RET in the absence of inhibitor—RET in the presence of inhibitor)/(RET in the absence of inhibitor—RET in the presence of Leu3a)×100.
(§1) Experimental design and data analysis were based on the combination index (CI) method (Chou et al. 1991; Chou et al. 1984). Compounds were tested individually and in combination at a fixed molar ratio over a range of serial dilutions. […] The mutually exclusive CI formula was used for combinations of CCR5 inhibitors, while the mutually non-exclusive formula was utilized for combinations of inhibitors to distinct targets (Chou et al. 1991). Each test was conducted 4-12 times. Synergy, additivity and antagonism are indicated by CI<1, CI=1 and CI>1, respectively.
(§2) In the Bonferroni correction, P=.alpha,/h, where n is the number of comparisons. Twenty-two synergy comparisons (11 compounds×2 CI values) were made based on data generated in the membrane fusion assay, resulting in a corrected P value of0.0023.

[3] = in vivo; cited from earlier work
[4] = system: reporter viruses pseudotyped with HIV-1SF162 envelope; type: cell-based; conditions: HIV-1 Envelope SF162; named 1st inhibitor with 2nd inhibitor PRO 140
From the text: (§3) A self-inactivating (SIN) vector was derived from the pNL4-3ΔEnv-luciferase vector (Dragic et al. 1996) by deleting 507 basepairs in the U3 region of the 3′ long terminal repeat (LTR) so as to remove the TATA, box and transcription factor binding sites. The human cytomegalovirus promoter was inserted upstream of the luciferase (luc) gene to enable expression of luciferase following integration.
(§4) SF162 envelopes were generated by cotransfection of 293T cells with the SIN vector and the appropriate pcDNA env-expressing vector as previously described (Dragic et al, 1996). […] Cultures were incubated for 72 h at 37°C. in DMEM containing 10% fetal bovine serum, […], 0.3 mg/mL geneticin, antibiotics, and 0.5% DMSO. Luciferase activity (relative light units or RLU) was measured using BrightGlo reagent (Promega, Madison, Wis.) according to the manufacturer's instructions. Percent inhibition was calculated as: (1-RLU in the presence of inhibitor/RLU in the absence of inhibitor)×100.
as §1, §2

[5] = system: reporter viruses pseudotyped with HIV-1JR-FL envelope; type: cell-based; conditions: HIV-1 Envelope JRFL; named 1st inhibitor with 2nd inhibitor PRO 140
From the text: as §3, §4, §1, §2

[6] = single administration of TAK-652 solution; cited from earlier work
CCR5 [7] = target: T1, CCR5 (Homo sapiens, UniProt P51681); assay: Competition binding: inhibition of PRO 140-PE binding to CEM.NKR-CCR5 cells; parameters: host or cells: CEM.NKR-CCR5 (transduced human T cell leukemia line); conditions: for inhibition of PRO 140-PE binding to CEM.NKR-CCR5 cells: in words
Experimental: Azide was added to block CCR5 internalization during the assay.

CCR5 [8] = target: T1, CCR5; assay: Competition binding: inhibition of 3H-UK-427,857 binding to CEM.NKR-CCR5 cells; parameters: host or cells: CEM.NKR-CCR5 (transduced human T cell leukemia line)
From the text: The cells were washed in PBSA and lysed with 0.5N HCl prior to scintillation counting using a Wallac1410 instrument.

CCR5 [9] = target: T1, CCR5; assay: RANTES-induced calcium mobilization in L1.2-CCR5 cells; type: cell-based; conditions: FIG. 4
From the text: Similar results were obtained for MIP-1.alpha, and MIP-1β

CCR5 lymphocytes = type: in vivo, human; conditions: 2 mg/kg
Experimental: Individuals were treated in sequential, dose-rising cohorts of 5 subjects (4 active and 1 placebo) each and evaluated for up to 120 days post-treatment. […] Safety assessments consisted of monitoring the following: vital signs (blood pressure, pulse, temperature, etc; hematology (hemoglobin, hematocrit, leukocytes, platelets, etc.); serum chemistries (AST/ALT, alkaline phosphatase, BUN, creatinine, etc.); urinalysis (pH, specific gravity, protein, glucose, leukocytes, etc.); and ECGs (12-lead).
Whole blood specimens were combined separately with the indicated phycoerythrin-labeled anti-CCR5 antibodies or with appropriate isotype-control antibodies. Erythocytes were lysed and leukocytes were stabilized using the ImmunoPrep Reagent System (Beckman Coulter), and the cells were analyzed on a TQ Prep™ flow cytometry workstation (Beckman Coulter). Data were expressed as the percent of CCR5 cells relative to all cells gated in the analysis.
For up to 60 days post-treatment, at the times indicated in FIG. 6, blood was collected and analyzed for CCR5 lymphocyte levels.

HIV-1 = conditions: repeated administration; cited from earlier work
[10] = named 1st inhibitor with 2nd inhibitor PRO 140, equimolar
[11] = named 1st inhibitor with 2nd inhibitor UK-427,857, equimolar

T1 sequence (P51681 whole entry): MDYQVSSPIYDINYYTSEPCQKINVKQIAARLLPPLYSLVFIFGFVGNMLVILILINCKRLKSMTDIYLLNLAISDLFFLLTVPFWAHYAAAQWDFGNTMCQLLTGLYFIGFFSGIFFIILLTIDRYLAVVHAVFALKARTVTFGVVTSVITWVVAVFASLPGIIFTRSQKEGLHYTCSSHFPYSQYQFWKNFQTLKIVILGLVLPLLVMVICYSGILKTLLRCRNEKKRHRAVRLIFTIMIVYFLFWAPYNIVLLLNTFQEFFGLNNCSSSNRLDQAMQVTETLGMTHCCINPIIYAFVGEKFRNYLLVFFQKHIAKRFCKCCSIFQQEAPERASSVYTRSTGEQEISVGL

## Cc1nnc(C(C)C)n1C1CC2CCC(C1)N2CC[C@H](NC(=O)C1CCC(F)(F)CC1)c1ccccc1 (some centres unmarked) [UK-427,857]
[1]
  Mean CF: 0.59 ± 0.04
[2]; [10]
  C190: 0.40 ± 0.06
  CI50: 0.61 ± 0.5

## Cc1ccc(-c2ccc3c(c2)C=C(C(=O)Nc2ccc(C[N+](C)(C)C4CCOCC4)cc2)CCC3)cc1.[Cl-] [TAK-779]
[3]
  local tolerability: local injection site irritation

## Cc1ccnc2c1NC(=O)c1cccnc1N2C1CC1 [nevirapine]
[4]
  CI190: 0.63 ± 0.19
[5]
  CI190: 0.73 ± 0.28

## Cc1cn([C@H]2C[C@H](N=[N+]=[N-])[C@@H](CO)O2)c(=O)[nH]c1=O [zidovudine]
[4]
  CI190: 1.0 ± 0.38
[5]
  CI190: 0.85 ± 0.26

## COc1ccnc2[nH]cc(C(=O)C(=O)N3CCN(C(=O)c4ccccc4)C[C@H]3C)c12 [BMS-378806, (R)-N-(benzoyl)-3-methyl-N′-[(4-methoxy-7-azaindol-3-yl)-oxoacetyl]-piperazine]
[4]
  CI190: 0.82 ± 0.21
[5]
  CI190: 0.74 ± 0.23
[2]; [10]
  C190: 1.1 ± 0.22
  CI50: 1.3 ± 0.19

## CCCCOCCOc1ccc(-c2ccc3c(c2)/C=C(/C(=O)Nc2ccc([S+]([O-])Cc4cncn4CCC)cc2)CCCN3CC(C)C)cc1 (centres unmarked) [TAK-652]
[6]
  safety and tolerability: safe and well tolerated

## COC[C@@H](c1ccc(C(F)(F)F)cc1)N1CCN(C2(C)CCN(C(=O)c3c(C)ncnc3C)CC2)C[C@@H]1C [SCH-D]
CCR5 [7]
  impact on percent of cells gated for positive binding of PRO 140-PE: little impact
  inhibition of PRO 140-PE binding to CEM.NKR-CCR5 cells: modest levels of inhibition
CCR5 [8]
  inhibition of 3H-UK-427,857 binding: blocked ^3H-UK-427,857 binding to background levels
[4]
  CI190: 0.28 ± 0.11
[5]
  CI190: 0.18 ± 0.04
[2]; [10]
  C190: 0.36 ± 0.06
[2]; [11]
  C190: 0.75 ± 0.02

B1: PRO 140: humanized IgG4,kappa anti-CCR5 mAb; humanized version of the murine mAb PA14 (antibody, chains of the INN, looked up, V domains shown)
VH: EVQLVESGGGLVKPGGSLRLSCAASGYTFSNYWIGWVRQAPGKGLEWIGDIYPGGNYIRNNEKFKDKTTLSADTSKNTAYLQMNSLKTEDTAVYYCGSSFGSNYVFAWFTYWGQGTLVTVSS
VL: DIVMTQSPLSLPVTPGEPASISCRSSQRLLSSYGHTYLHWYLQKPGQSPQLLIYEVSNRFSGVPDRFSGSGSGTDFTLKISRVEAEDVGVYYCSQSTHVPLTFGQGTKVEIK
CCR5 [7]
  inhibition of PRO 140-PE binding to CEM.NKR-CCR5 cells: Complete inhibition
CCR5 [9]
  inhibition of RANTES-induced calcium mobilization vs HIV-1JR-FL replication: blocks HIV-1 but not chemokine signaling
CCR5 [8]; in words
  inhibition of 3H-UK-427,857 binding: blocked ^3H-UK-427,857 binding to background levels
CCR5 lymphocytes
  binding of antibody 2D7 to CCR5 lymphocytes: significantly decreased
[4]
  CI190: 0.86 ± 0.33
[5]
  CI190: 0.90 ± 0.15
HIV-1
  control of HIV-1 replication: prolonged control of HIV-1 replication without viral escape

B2: RANTES: CC-chemokine that serves as a natural ligand for CCR5; purchased from R&D Systems (protein, UniProt P13501 24-91, looked up)
C-C motif chemokine 5: SPYSSDTTPCCFAYIARPLPRAHIKEYFYTSGKCSNPAVVFVTRKNRQVCANPEKKWVREYINSLEMS
[1]
  Mean CF: 0.59 ± 0.08
[1]; molar ratio 1:5
  Mean Dose Reduction (Cpd in combination): 1.75 ± 0.28
[1]; molar ratio 5:1
  Mean Dose Reduction (Cpd in combination): 5.39 ± 1.13
[2]; [10]
  C190: 0.43 ± 0.05
[2]; [11]
  C190: 0.18 ± 0.01
